Results: publication PMC12040169 (PLOS Biology, 2025)

Assay: in vitro
Conditions: human, hela cells, % viability

Row | Compound | viability at 28.5 h, 10 µM [%] | viability at 28.5 h, 10 µM (bulk resorufin, single well) [%]
1 | CC(=O)N1CCC[C@H]2NC(=O)CNC(=O)C3(C/C=C/C[C@H]21)CCN(C(=O)c1ccon1)CC3 [CBK292057] | 109 | 
2 | N=C1/C(=C/c2cn(Cc3ccccc3)c3ccccc23)C(=O)N=C2SC(COc3ccccc3)=NN12 [CBK264150] | 114 | 
3 | CCNC(=O)N1CCC(NS(=O)(=O)c2cnc3ccccc3c2)C1 (centres unmarked) [CBK304419] | 85.3 | 
4 | O=C(CSc1nc2ccccc2c(=O)[nH]1)NCCO [CBK266469] | 96.2 | 
5 | COc1ccccc1OCCOc1c(Cl)cc(/C=C2\SC(=S)NC2=O)cc1Cl [CBK264848] | 93.9 | 
6 | Cc1nn(Cc2ccc(C(=O)Nc3c(C)nn(Cc4ccc(Cl)c(Cl)c4)c3C)o2)c(C)c1Br [CBK265855] | 83.5 | 
7 | CC1OC(n2ccc(=S)[nH]c2=O)C(O)C1O (centres unmarked) [CBK012231] | 103 | 
8 | CC(O)(CC#N)c1ccccc1 (centres unmarked) [CBK028508] | 114 | 
9 | CCOc1ccc2ccccc2c1CNCc1cccnc1 [CBK269934C] | 91.8 | 
10 | N#Cc1c(NC(=O)c2cc(S(=O)(=O)N3CCOCC3)cs2)sc2c1CCCC2 [CBK264532] | 102 | 
11 | O=C(O)CCCNC(=O)C(O)(c1ccccc1)c1ccccc1 [CBK269156] |  | 95.5
12 | O=C(Nc1nnc(C2=COCCO2)o1)c1cccc(Cl)c1 [CBK287417] | 83.5 | 
13 | CC(N(C)S(=O)(=O)c1ccc(-n2ncc(Cl)c(Cl)c2=O)cc1)C(C)(C)C (centres unmarked) [CBK304544] | 73.9 | 
14 | CCCCOc1ccc(C(=O)N/C(=C/c2ccc(OC)cc2)C(=O)O)cc1 [CBK300490] | 87.5 | 
15 | Cn1c(=O)n(C)c2cc(NC(=O)C(F)(F)F)ccc21 [CBK021127] | 80.9 | 
16 | CCn1c2ccccc2c2cc(CN3CCN(Cc4c[nH]c5ccccc45)CC3)ccc21 [CBK263167] | 89.3 | 
17 | Cc1ccc(C2CC(=O)c3cnc(N)nc3C2)cc1 (centres unmarked) [CBK288166] | 92 | 
18 | COC(=O)C(=O)N1CC[C@H]2NC(=O)N(Cc3ccccc3)C(=O)[C@H]21 [CBK289292] | 98.6 | 
19 | Cc1ccccc1Cc1cccc(C2CCN(C(=O)c3ccc(F)cc3)CC2)n1 [CBK286140] | 88.4 | 
20 | O=C(CN1CCOCC1)N1CCc2ccccc21 [CBK200271] | 96.3 | 
21 | CC(=O)N1CCC2(CCCC[C@H]3CN(C(=O)C(C)C)CC[C@@H]3NC(=O)CNC2=O)CC1 [CBK292121] | 102 | 
22 | Cc1csc(C(Cc2ccsc2)NC(=O)Cn2ccnc2)n1 (centres unmarked) [CBK285113] | 106 | 

Row | Compound | viability at 28.5 h, 10 µM [%] | viability at 28.5 h, 10 µM (bulk resorufin, single well) [%]
23 | O=C(O)CCC(=O)Nc1ccc(-c2ccc([N+](=O)[O-])cc2)cc1 [CBK261637] | 105 | 
24 | COc1ccc(NC(=O)c2nn(-c3nc4ccccc4o3)c3ccccc23)cc1 [CBK048492] | 93.8 | 
25 | COc1cccc(/C=C(/C#N)c2ccc(F)cc2)c1OCc1cccc(C(=O)O)c1 [CBK267993] | 102 | 
26 | CN(CCC#N)S(=O)(=O)c1ccc(OC(F)(F)F)cc1 [CBK044415] | 88.1 | 
27 | CCC(NC1CCc2nc(COC)nn2C1)c1ccccc1O (centres unmarked) [CBK305132] | 92.1 | 
28 | Cc1nc2cc(OCc3nc(C(=O)N(C)CCN(C)C)co3)ccc2s1 [CBK306685] | 106 | 
29 | COc1ccc(C(=O)C2=C(O)C(=O)N(CCN(C)C)C2c2cccc([N+](=O)[O-])c2)cc1C (centres unmarked) [CBK264875] | 85.2 | 
30 | Nc1ncc(Br)nc1N[C@@H](CO)c1ccccc1 [CBK074321] | 102 | 
31 | O=C(Nc1cccc(C(=O)O)c1)/C(=C\c1ccc2c(c1)OCO2)NC(=O)c1ccccc1Cl [CBK263746] | 96.4 | 
32 | O=C(NCCc1c[nH]cn1)c1ccccc1-n1cccc1 [CBK161000] | 92.4 | 
33 | O=C(Cn1ncn2c(cc3ccsc32)c1=O)NCc1cccs1 [CBK284197] | 90.3 | 
34 | O=C(CCC(=O)OCN1C(=O)c2ccccc2C1=O)Nc1ccc2ccccc2c1 [CBK265277] | 108 | 
35 | COc1ccc(-c2cnc(N)c(NCc3cccnc3)n2)c(OC)c1OC [CBK063540] | 99 | 
36 | Cn1c(SCC(=O)N2CCN(Cc3ccccc3)CC2)nnc1-c1cccc([N+](=O)[O-])c1 [CBK267154] | 90.6 | 
37 | Cn1ccnc1C1(O)CCN(C(=O)NC2CCCCC2)CC1 [CBK282275] | 91.8 | 
38 | O=C(O)CCCSCC(=O)Nc1ccccc1 [CBK276905] | 88.4 | 
39 | CCc1cc(CNS(=O)(=O)Cc2cccc(F)c2)on1 [CBK283061] | 92.1 | 
40 | Cc1nn(C)cc1S(=O)(=O)N1CCn2cccc2C1C(C)C (centres unmarked) [CBK282787] | 99.8 | 
41 | O=C(O)c1[nH]c2ccccc2c1NS(=O)(=O)c1ccc(Br)cc1 [CBK049878] | 61.1 | 
42 | CC(O)C(=O)NS(=O)(=O)c1ccccc1 (centres unmarked) [CBK038300] | 104 | 
43 | CCCn1c(SCC(=O)N2CCOCC2)nc2ccc(Br)cc2c1=O [CBK305929] | 83 | 
44 | CCCn1cnc2cc(NC(=O)C3CCN(S(=O)(=O)c4ccc(F)cc4)C3)ccc21 (centres unmarked) [CBK285704] | 85.8 | 
